Laboratory results as given in ChEMBL document CHEMBL2074436, “Hepatobiliary elimination of the peroxisome proliferator nafenopin by conjugation and subsequent ATP-dependent transport across the canalicular membrane” (Biochem Pharmacol, 1994).

What was measured:
[1] = molecular target: T1, ATP-binding cassette sub-family C member 2 (Rattus norvegicus, UniProt Q63120); assay: TP_TRANSPORTER: inhibition of Naf-GlcA uptake (Naf-GlcA: 0.1 uM) in bile canalicular membrane vesicles of Wistar rat; type: functional, cell membranes, Bile canalicular membrane vesicle
[2] = molecular target: T1, ATP-binding cassette sub-family C member 2; assay: TP_TRANSPORTER: uptake in bile canalicular membrane vesicles from Wistar/TR- rat; type: functional, cell membranes, Bile canalicular membrane vesicle

T1 sequence (Q63120 whole entry): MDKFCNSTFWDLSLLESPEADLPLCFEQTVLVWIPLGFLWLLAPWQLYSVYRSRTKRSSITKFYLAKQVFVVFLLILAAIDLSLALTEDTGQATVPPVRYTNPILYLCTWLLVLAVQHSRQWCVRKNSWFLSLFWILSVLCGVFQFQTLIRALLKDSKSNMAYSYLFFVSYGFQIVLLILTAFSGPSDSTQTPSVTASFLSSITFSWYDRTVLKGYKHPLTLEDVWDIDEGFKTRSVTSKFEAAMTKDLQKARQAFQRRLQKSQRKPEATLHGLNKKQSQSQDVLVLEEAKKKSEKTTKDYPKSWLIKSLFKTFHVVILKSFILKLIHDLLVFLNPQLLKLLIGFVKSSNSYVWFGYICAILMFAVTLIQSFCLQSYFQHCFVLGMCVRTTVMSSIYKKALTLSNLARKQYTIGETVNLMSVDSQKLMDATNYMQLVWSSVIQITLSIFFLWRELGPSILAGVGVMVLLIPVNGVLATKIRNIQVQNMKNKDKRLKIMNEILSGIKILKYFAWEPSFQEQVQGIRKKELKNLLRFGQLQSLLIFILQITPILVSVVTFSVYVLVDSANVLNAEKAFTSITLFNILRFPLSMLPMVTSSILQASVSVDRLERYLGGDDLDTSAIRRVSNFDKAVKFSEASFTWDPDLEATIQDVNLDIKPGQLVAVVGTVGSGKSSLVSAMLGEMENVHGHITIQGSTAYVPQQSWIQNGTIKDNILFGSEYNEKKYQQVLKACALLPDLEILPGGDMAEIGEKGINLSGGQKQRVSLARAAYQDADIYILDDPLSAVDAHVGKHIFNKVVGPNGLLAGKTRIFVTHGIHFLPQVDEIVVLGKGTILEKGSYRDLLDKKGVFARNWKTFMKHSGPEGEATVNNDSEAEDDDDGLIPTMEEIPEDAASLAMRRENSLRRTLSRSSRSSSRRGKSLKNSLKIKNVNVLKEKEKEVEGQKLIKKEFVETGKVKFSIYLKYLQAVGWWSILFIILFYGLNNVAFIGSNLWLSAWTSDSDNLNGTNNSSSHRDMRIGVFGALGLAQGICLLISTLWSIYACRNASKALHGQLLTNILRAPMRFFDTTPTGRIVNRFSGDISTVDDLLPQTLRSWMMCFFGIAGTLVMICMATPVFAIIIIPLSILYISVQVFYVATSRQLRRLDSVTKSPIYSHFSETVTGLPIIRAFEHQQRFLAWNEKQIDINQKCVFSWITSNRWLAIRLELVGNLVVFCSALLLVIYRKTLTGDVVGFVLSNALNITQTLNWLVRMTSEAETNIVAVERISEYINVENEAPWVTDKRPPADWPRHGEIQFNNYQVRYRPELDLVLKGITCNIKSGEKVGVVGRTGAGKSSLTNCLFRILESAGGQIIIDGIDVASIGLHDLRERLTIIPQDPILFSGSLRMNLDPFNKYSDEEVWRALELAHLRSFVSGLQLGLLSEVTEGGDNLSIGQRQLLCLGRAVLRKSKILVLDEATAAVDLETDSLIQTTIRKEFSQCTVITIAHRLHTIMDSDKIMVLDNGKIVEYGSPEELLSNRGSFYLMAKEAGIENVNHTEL

| Activity [2] | Structure (SMILES) | IC50 [1] [µM] |
| --- | --- | --- |
|  | N[C@@H](CCC(=O)N[C@H](CSc1ccc([N+](=O)[O-])cc1[N+](=O)[O-])C(=O)NCC(=O)O)C(=O)O | 12 |
| substrate [+] | CC(C)(Oc1ccc(C2CCCc3ccccc32)cc1)C(=O)O[C@@H]1O[C@H](O)[C@@H](O)[C@H](O)[C@H]1O (stereo partly drawn) [NAFENOPIN GLUCURONIDE] |  |
|  | CCCCC/C=C\C\C=C/C=C/C=C/[C@@H](SC[C@@H](NC(=O)CC[C@H](N)C(=O)O)C(=O)NCC(=O)O)[C@@H](O)CCCC(=O)O [LEUKOTRIEN C4] | 0.2 |
